Values after ≈ are worked out from the molar mass of the structure shown.
What follows are compounds tested on Mycobacterium tuberculosis variant bovis BCG (assay: microbe, parasite or virus in culture).
Assay type: functional

Compared with `O=C(Cc1ccc(Cl)cc1)Nc1nc(-c2ccccn2)cs1`, `O=C(Cc1ccc(F)cc1)Nc1nc(-c2ccccn2)cs1` is 2.1-fold higher in MIC90: 4.3 µM (≈ 1.42 µg/mL) for the first, 8.9 µM (≈ 2.79 µg/mL) for the second.

Compared with `O=C(/C=C/c1ccc(C(F)(F)F)cc1F)NC1CCN(c2ncccc2C(F)(F)F)CC1`, `O=C(NC1CCN(Cc2ccc(F)cc2)C1)c1sccc1-c1cccc(Cl)c1` (configuration not stated) is 1.7-fold higher in MIC90: 4.2 µM (≈ 1.94 µg/mL) for the first, 7 µM (≈ 2.9 µg/mL) for the second.

First: Cc1noc(C)c1COc1ccc(C(=O)N2CCCCC2c2nc3ccccc3s2)cc1 (configuration not stated)
Second: O=C(Nc1ccc(C(=O)N2CCCCC2c2nc3ccccc3s2)cc1)c1ccco1 (configuration not stated)
The MIC90 of the first is 64-fold higher: 6.4 µM (≈ 2.86 µg/mL) for the first, 0.1 µM (≈ 0.0432 µg/mL) for the second.

Going from `CCC(Sc1nc2ccccc2o1)C(=O)Nc1nccs1` (configuration not stated) to `CC(C)Sc1ccc(C(=O)Nc2nc(-c3ccccn3)cs2)cc1`, the MIC90 falls from 5.7 µM (≈ 1.82 µg/mL) to 1.2 µM (≈ 0.427 µg/mL) (4.8-fold).

Going from `COc1ccc(-c2ccc(Nc3cccc(S(=O)(=O)CCNCCn4nc(C)cc4C)c3)nc2)cn1` to `COc1cccc(Nc2cc(C(C)(C)C)nc(-c3ccccn3)n2)c1`, the MIC90 falls from 6.9 µM (≈ 3.5 µg/mL) to 3.6 µM (≈ 1.2 µg/mL) (1.9-fold).

First: O=C(COc1ccc(-c2ccccc2)cc1)NNC(=O)c1ccncc1
Second: O=C(COc1ccc(-c2ccccc2)cc1)NNC(=O)c1ccco1
The MIC90 of the first is 2.3-fold higher: 5.7 µM (≈ 1.98 µg/mL) for the first, 2.5 µM (≈ 0.841 µg/mL) for the second.

Compared with `CCOc1cc(OC)c(C(=O)Nc2cccc3c2CCNC3C)cc1Cl` (configuration not stated), `CCCCc1cc(OC)c(C(=O)Nc2cccc3c2CCN(C)C3)cc1Cl` is 1.7-fold higher in MIC90: 3.7 µM (≈ 1.39 µg/mL) for the first, 6.4 µM (≈ 2.48 µg/mL) for the second.

`O=C(O)C(F)(F)F.c1ccc2c(-c3ccc(CNCC4CCNC4)cc3)cncc2c1` (configuration not stated) and `CCCCNC(=O)c1cccc(-c2ccc(OCc3ccccc3)cc2)c1` are within 1.5-fold of each other in MIC90: 7.8 µM for the first, 9.9 µM (≈ 3.56 µg/mL) for the second.

`COc1ccc(Nc2nc(CN3CCN(Cc4ccc(C#N)cc4)CC3)cs2)cc1` and `COc1ccc(-c2nc(CCNC(=O)c3ccc(OC)cc3OC)cs2)cc1` are within 1.5-fold of each other in MIC90: 8.6 µM (≈ 3.61 µg/mL) for the first, 6.4 µM (≈ 2.55 µg/mL) for the second.

Compared with `CC(=O)NCCn1c(Sc2ccnc(N3CCN(c4ccncc4)CC3)n2)nnc1-c1ccco1`, `CC(=O)NCCn1c(Sc2ccnc(N3CCN(c4ccncc4)CC3)n2)nnc1-c1ccccc1` is 1.5-fold higher in MIC90: 2.6 µM (≈ 1.28 µg/mL) for the first, 4 µM (≈ 2.01 µg/mL) for the second.

`CC1(C)NC(N)=NC(=N)N1OCCCOc1ccc2ccccc2c1` and `Br.Cc1ccccc1OCCCON1C(=N)N=C(N)NC1(C)C` are within 1.5-fold of each other in MIC90: 9.5 µM (≈ 3.24 µg/mL) for the first, 7 µM for the second.

Compared with `Cc1nnc(SCC(=O)NNC(=O)c2ccco2)nc1O`, `Cc1cc(O)nc(-n2nc(C)cc2NC(=O)c2cc3ccccc3o2)n1` is 2.1-fold higher in MIC90: 3 µM (≈ 0.928 µg/mL) for the first, 6.2 µM (≈ 2.17 µg/mL) for the second.

Going from `Cc1cc(C)c2nc3c(cc2c1)CN(Cc1ccco1)C(=O)O3` to `COc1cccc(C(=O)N(Cc2cccnc2)Cc2cc3c(C)cc(C)cc3nc2Cl)c1`, the MIC90 falls from 9 µM (≈ 2.78 µg/mL) to 3.1 µM (≈ 1.38 µg/mL) (2.9-fold).

Compared with `CC(=O)Nc1ccc(S(=O)(=O)Nc2ccccc2Nc2ccc(C)cc2)cc1`, `Cl.Cl.O=C(Nc1ccc(NC2=NCCN2)cc1)c1ccc(C(=O)Nc2ccc(NC3=NCCN3)cc2)cc1` is 4.7-fold lower in MIC90: 1.9 µM (≈ 0.751 µg/mL) for the first, 0.4 µM for the second.

`Cc1ccc(C)c(-c2nnc(NC(=O)c3ccc(Cl)s3)o2)c1` and `O=C(Nc1nnc(-c2ccc(Br)cc2)o1)c1cccc(F)c1` are within 1.5-fold of each other in MIC90: 2.8 µM (≈ 0.935 µg/mL) for the first, 2.2 µM (≈ 0.797 µg/mL) for the second.

First: COc1ccc(-c2cc(=O)c3cc(OCC(=O)OC(C)C)ccc3o2)cc1
Second: Cc1ccc(OCC(=O)Nc2cc(C)nn2-c2nc(C)cc(O)n2)cc1
The MIC90 of the first is 1.7-fold higher: 6.2 µM (≈ 2.28 µg/mL) for the first, 3.6 µM (≈ 1.27 µg/mL) for the second.

Compared with `Fc1ccc(F)c(-c2noc(CC3CCN(Cc4ccsc4)C3)n2)c1` (configuration not stated), `COc1cc(CN2CCC(Cc3nc(-c4ccc5c(c4)CCO5)no3)C2)ccc1F` (configuration not stated) is 1.9-fold higher in MIC90: 3.5 µM (≈ 1.26 µg/mL) for the first, 6.7 µM (≈ 2.74 µg/mL) for the second.

`Cc1cc(C)n(-c2nc(C)c(Br)c(N(C)CCO)n2)n1` and `Cc1ccc2nc(C)c(-c3ccn(Cc4ccccc4)n3)n2c1` are within 1.5-fold of each other in MIC90: 4.7 µM (≈ 1.6 µg/mL) for the first, 5.9 µM (≈ 1.78 µg/mL) for the second.

First: CCN(CC)CCCn1c(Sc2ccnc(N3CCN(c4ccncc4)CC3)n2)nnc1-c1ccccc1
Second: Cc1cc(Oc2ccc(-n3ccnc3)cc2)nc(N2CCN[C@@H](Cc3ccccc3)C2)n1
The MIC90 of the first is 2.5-fold lower: 2.4 µM (≈ 1.27 µg/mL) for the first, 6.1 µM (≈ 2.6 µg/mL) for the second.

`Cc1cccc(-c2nc(C(=O)Nc3ccnc4ncnn34)cs2)c1` and `Cc1nn(CC(C)C)c2sc(C(=O)Nc3nc(-c4ccccn4)cs3)cc12` are within 1.5-fold of each other in MIC90: 5.3 µM (≈ 1.78 µg/mL) for the first, 3.7 µM (≈ 1.47 µg/mL) for the second.

`CCOc1ccc(C(=O)Nc2cc(Cl)c3c(c2)CNCC3)cc1C(C)=O` and `CNC(=O)c1cc(Nc2ncc(F)c(N(C)c3ccc4c(C)[nH]nc4c3)n2)ccc1OCC1CCNCC1` are within 1.5-fold of each other in MIC90: 9.2 µM (≈ 3.43 µg/mL) for the first, 8.8 µM (≈ 4.56 µg/mL) for the second.

Going from `Cc1cccc(-c2nc(Nc3ccncn3)c3sccc3n2)n1` to `c1ccc(Nc2cc(-c3ccccc3)nc(-c3ccccn3)n2)cc1`, the MIC90 rises from 0.3 µM (≈ 0.0961 µg/mL) to 3.7 µM (≈ 1.2 µg/mL) (12-fold).

Compared with `CN(CCOc1cccc(-c2ccc(C(=O)N3CCCC3)cc2)c1)Cc1cc(-c2ccccc2)no1`, `O=C(c1ccc(-c2cccc(OCCN(CCO)C3CCCCC3)c2)cc1)N1CCCC1` is 2.1-fold higher in MIC90: 3.1 µM (≈ 1.49 µg/mL) for the first, 6.5 µM (≈ 2.84 µg/mL) for the second.

Going from `c1ccc2nc(CN3CCC4(CC3)OCCc3sccc34)ccc2c1` to `c1ccc(-c2ccc(CN3CCC4(CC3)OCCc3sccc34)s2)cc1`, the MIC90 falls from 9.1 µM (≈ 3.19 µg/mL) to 4.7 µM (≈ 1.79 µg/mL) (1.9-fold).

Going from `Clc1ccc(-c2nnc3sc(Cc4cccs4)nn23)cc1` to `COc1ccc(-c2nc(-c3cccc(NC(=O)Cc4ccc(F)cc4)c3)no2)cc1OC`, the MIC90 falls from 7.5 µM (≈ 2.5 µg/mL) to 2.3 µM (≈ 0.997 µg/mL) (3.3-fold).

Compared with `Cc1c(Cl)cc(F)cc1S(=O)(=O)NCCCn1nc(Cl)c(N2CCCNCC2)cc1=O`, `O=c1cc(N2CCCNCC2)c(Cl)nn1CCCNS(=O)(=O)c1cccc(-c2ccccc2)c1` is 1.8-fold lower in MIC90: 7.9 µM (≈ 3.89 µg/mL) for the first, 4.3 µM (≈ 2.16 µg/mL) for the second.

`Cc1cc(OCC(=O)Nc2ccccc2)c2cc(Br)ccc2n1` and `c1ccc(-c2csc(Nc3nc4cc5c(cc4s3)OCO5)n2)nc1` are within 1.5-fold of each other in MIC90: 2 µM (≈ 0.742 µg/mL) for the first, 1.5 µM (≈ 0.532 µg/mL) for the second.

`C=CCc1cc(C(=O)NC2CCC(C(C)(C)C)CC2)ccc1OC` (configuration not stated) and `Cn1cc(-c2noc(CCNCCC(C)(C)C)n2)c2ccccc21` are within 1.5-fold of each other in MIC90: 8.1 µM (≈ 2.67 µg/mL) for the first, 9.3 µM (≈ 3.04 µg/mL) for the second.

`COC(=O)c1c(NC(=O)c2c(F)c(F)c(F)c(F)c2F)sc2c1CCCCC2` showed an MIC90 of 2 µM (≈ 0.839 µg/mL).

From ChEMBL document CHEMBL2095176, “GSK Tuberculosis Screening Data”
